System: patients with MUM
Experiment: Adverse events suspected to be study drug related (NCI-CTCAE v4.03)
Type: in vivo, human
Protocol: Routine safety assessments, including laboratory assessments, physical examinations, vital signs and electrocardiograms (ECGs), were conducted at regular intervals throughout the study and more frequently as needed following patient assessment by the treating physician. Adverse events (AEs) were assessed continuously according to the National Cancer Institute Common Terminology Criteria for Adverse Events (NCI-CTCAE) v4.03.

CC1(N)CCN(c2cccnc2NC(=O)c2nc(-c3ncccc3C(F)(F)F)cnc2N)CC1 [LXS196]
2 (6.7) n (%): ALT increased, grade ≥3 (All BID) | AST increased, grade ≥3 (All BID)
2 (50.0) n (%): Constipation, all grades (200 mg QD) | Nausea, all grades (200 mg QD) | Patients with ≥1 AE, grade ≥3 (200 mg QD) | Vomiting, all grades (200 mg QD) | Hypotension, all grades (1000 mg QD) | Patients with ≥1 AE, grade ≥3 (1000 mg QD)
3 (75.0) n (%): Fatigue, all grades (1000 mg QD)
4 (100) n (%): Patients with ≥1 AE, all grades (200 mg QD) | Diarrhoea, all grades (1000 mg QD) | Nausea, all grades (1000 mg QD) | Patients with ≥1 AE, all grades (1000 mg QD)
2 (13.3) n (%): Patients with ≥1 AE, grade ≥3 (300 mg QD)
4 (22.2) n (%): Asthenia, all grades (300 mg BID (RDE)) | Dry skin, all grades (300 mg BID (RDE)) | Rash, all grades (300 mg BID (RDE))
3 (16.7) n (%): AST increased, all grades (300 mg BID (RDE)) | Fatigue, all grades (300 mg BID (RDE)) | Hypotension, all grades (300 mg BID (RDE))
8 (72.7) n (%): Nausea, all grades (500 mg QD)
17 (94.4) n (%): Patients with ≥1 AE, all grades (300 mg BID (RDE))
16 (53.3) n (%): Diarrhoea, all grades (All BID)
3 (20.0) n (%): ALT increased, all grades (300 mg QD) | Asthenia, all grades (300 mg QD) | Rash, all grades (300 mg QD)
14 (93.3) n (%): Patients with ≥1 AE, all grades (300 mg QD)
0 n (%): ALT increased, all grades (100 mg QD) | ALT increased, grade ≥3 (100 mg QD) | AST increased, all grades (100 mg QD) | AST increased, grade ≥3 (100 mg QD) | Asthenia, all grades (100 mg QD) | Asthenia, grade ≥3 (100 mg QD) | Blood creatinine increased, all grades (100 mg QD) | Blood creatinine increased, grade ≥3 (100 mg QD) | Constipation, grade ≥3 (100 mg QD) | Diarrhoea, grade ≥3 (100 mg QD) | Dry skin, all grades (100 mg QD) | Dry skin, grade ≥3 (100 mg QD) | Fatigue, all grades (100 mg QD) | Fatigue, grade ≥3 (100 mg QD) | Hypotension, all grades (100 mg QD) | Hypotension, grade ≥3 (100 mg QD) | Nausea, grade ≥3 (100 mg QD) | Patients with ≥1 AE, grade ≥3 (100 mg QD) | Rash, all grades (100 mg QD) | Rash, grade ≥3 (100 mg QD) | Vomiting, all grades (100 mg QD) | Vomiting, grade ≥3 (100 mg QD) | ALT increased, all grades (200 mg QD) | ALT increased, grade ≥3 (200 mg QD) | AST increased, all grades (200 mg QD) | AST increased, grade ≥3 (200 mg QD) | Asthenia, grade ≥3 (200 mg QD) | Blood creatinine increased, grade ≥3 (200 mg QD) | Constipation, grade ≥3 (200 mg QD) | Diarrhoea, grade ≥3 (200 mg QD) | Dry skin, all grades (200 mg QD) | Dry skin, grade ≥3 (200 mg QD) | Fatigue, all grades (200 mg QD) | Fatigue, grade ≥3 (200 mg QD) | Hypotension, all grades (200 mg QD) | Hypotension, grade ≥3 (200 mg QD) | Rash, all grades (200 mg QD) | Rash, grade ≥3 (200 mg QD) | Asthenia, grade ≥3 (300 mg BID (RDE)) | Blood creatinine increased, grade ≥3 (300 mg BID (RDE)) | Constipation, grade ≥3 (300 mg BID (RDE)) | Dry skin, grade ≥3 (300 mg BID (RDE)) | Fatigue, grade ≥3 (300 mg BID (RDE)) | Hypotension, grade ≥3 (300 mg BID (RDE)) | Nausea, grade ≥3 (300 mg BID (RDE)) | Rash, grade ≥3 (300 mg BID (RDE)) | Vomiting, grade ≥3 (300 mg BID (RDE)) | Asthenia, grade ≥3 (300 mg QD) | Blood creatinine increased, grade ≥3 (300 mg QD) | Constipation, grade ≥3 (300 mg QD) | Diarrhoea, grade ≥3 (300 mg QD) | Dry skin, grade ≥3 (300 mg QD) | Fatigue, grade ≥3 (300 mg QD) | Hypotension, grade ≥3 (300 mg QD) | Nausea, grade ≥3 (300 mg QD) | Rash, grade ≥3 (300 mg QD) | Vomiting, grade ≥3 (300 mg QD) | Asthenia, grade ≥3 (500 mg QD) | Blood creatinine increased, all grades (500 mg QD) | Blood creatinine increased, grade ≥3 (500 mg QD) | Constipation, all grades (500 mg QD) | Constipation, grade ≥3 (500 mg QD) | Diarrhoea, grade ≥3 (500 mg QD) | Dry skin, all grades (500 mg QD) | Dry skin, grade ≥3 (500 mg QD) | Fatigue, all grades (500 mg QD) | Fatigue, grade ≥3 (500 mg QD) | Nausea, grade ≥3 (500 mg QD) | Rash, all grades (500 mg QD) | Rash, grade ≥3 (500 mg QD) | Vomiting, grade ≥3 (500 mg QD) | ALT increased, all grades (800 mg QD) | ALT increased, grade ≥3 (800 mg QD) | AST increased, all grades (800 mg QD) | AST increased, grade ≥3 (800 mg QD) | Asthenia, all grades (800 mg QD) | Asthenia, grade ≥3 (800 mg QD) | Blood creatinine increased, all grades (800 mg QD) | Blood creatinine increased, grade ≥3 (800 mg QD) | Constipation, all grades (800 mg QD) | Constipation, grade ≥3 (800 mg QD) | Diarrhoea, grade ≥3 (800 mg QD) | Dry skin, all grades (800 mg QD) | Dry skin, grade ≥3 (800 mg QD) | Fatigue, all grades (800 mg QD) | Fatigue, grade ≥3 (800 mg QD) | Nausea, grade ≥3 (800 mg QD) | Rash, all grades (800 mg QD) | Rash, grade ≥3 (800 mg QD) | Vomiting, all grades (800 mg QD) | Vomiting, grade ≥3 (800 mg QD) | ALT increased, grade ≥3 (1000 mg QD) | AST increased, all grades (1000 mg QD) | AST increased, grade ≥3 (1000 mg QD) | Asthenia, all grades (1000 mg QD) | Asthenia, grade ≥3 (1000 mg QD) | Blood creatinine increased, all grades (1000 mg QD) | Blood creatinine increased, grade ≥3 (1000 mg QD) | Constipation, all grades (1000 mg QD) | Constipation, grade ≥3 (1000 mg QD) | Diarrhoea, grade ≥3 (1000 mg QD) | Dry skin, grade ≥3 (1000 mg QD) | Fatigue, grade ≥3 (1000 mg QD) | Nausea, grade ≥3 (1000 mg QD) | Rash, all grades (1000 mg QD) | Rash, grade ≥3 (1000 mg QD) | Vomiting, all grades (1000 mg QD) | Vomiting, grade ≥3 (1000 mg QD) | Asthenia, grade ≥3 (All BID) | Blood creatinine increased, grade ≥3 (All BID) | Constipation, grade ≥3 (All BID)
9 (60.0) n (%): Nausea, all grades (300 mg QD)
7 (46.7) n (%): Fatigue, all grades (300 mg QD)
7 (38.9) n (%): Vomiting, all grades (300 mg BID (RDE))
6 (20.0) n (%): AST increased, all grades (All BID)
1 (6.7) n (%): ALT increased, grade ≥3 (300 mg QD) | AST increased, all grades (300 mg QD) | AST increased, grade ≥3 (300 mg QD) | Blood creatinine increased, all grades (300 mg QD) | Constipation, all grades (300 mg QD) | Dry skin, all grades (300 mg QD) | Hypotension, all grades (300 mg QD)
3 (10.0) n (%): Constipation, all grades (All BID)
5 (27.8) n (%): ALT increased, all grades (300 mg BID (RDE))
1 (25.0) n (%): Asthenia, all grades (200 mg QD) | Blood creatinine increased, all grades (200 mg QD) | Diarrhoea, all grades (200 mg QD) | Nausea, grade ≥3 (200 mg QD) | Vomiting, grade ≥3 (200 mg QD) | ALT increased, all grades (1000 mg QD) | Dry skin, all grades (1000 mg QD) | Hypotension, grade ≥3 (1000 mg QD)
2 (66.7) n (%): Nausea, all grades (100 mg QD) | Patients with ≥1 AE, all grades (100 mg QD)
2 (11.1) n (%): Blood creatinine increased, all grades (300 mg BID (RDE)) | Patients with ≥1 AE, grade ≥3 (300 mg BID (RDE))
5 (45.5) n (%): Vomiting, all grades (500 mg QD)
10 (90.9) n (%): Patients with ≥1 AE, all grades (500 mg QD)
4 (26.7) n (%): Diarrhoea, all grades (300 mg QD)
2 (18.2) n (%): Asthenia, all grades (500 mg QD)
4 (36.4) n (%): AST increased, all grades (500 mg QD) | Diarrhoea, all grades (500 mg QD) | Hypotension, all grades (500 mg QD) | Patients with ≥1 AE, grade ≥3 (500 mg QD)
14 (77.8) n (%): Nausea, all grades (300 mg BID (RDE))
11 (61.1) n (%): Diarrhoea, all grades (300 mg BID (RDE))
7 (23.3) n (%): Asthenia, all grades (All BID)
3 (27.3) n (%): ALT increased, all grades (500 mg QD) | Hypotension, grade ≥3 (500 mg QD)
1 (33.3) n (%): Constipation, all grades (100 mg QD) | Diarrhoea, all grades (100 mg QD)
1 (100) n (%): Diarrhoea, all grades (800 mg QD) | Hypotension, all grades (800 mg QD) | Hypotension, grade ≥3 (800 mg QD) | Nausea, all grades (800 mg QD) | Patients with ≥1 AE, all grades (800 mg QD) | Patients with ≥1 AE, grade ≥3 (800 mg QD)
5 (33.3) n (%): Vomiting, all grades (300 mg QD)
5 (16.7) n (%): Blood creatinine increased, all grades (All BID)
8 (26.7) n (%): ALT increased, all grades (All BID)
1 (9.1) n (%): ALT increased, grade ≥3 (500 mg QD) | AST increased, grade ≥3 (500 mg QD)
1 (5.6) n (%): ALT increased, grade ≥3 (300 mg BID (RDE)) | AST increased, grade ≥3 (300 mg BID (RDE)) | Constipation, all grades (300 mg BID (RDE)) | Diarrhoea, grade ≥3 (300 mg BID (RDE))
1 (3.3) n (%): Diarrhoea, grade ≥3 (All BID)
